Test results taken from patent US20060251689A1, “Treatment or prevention of pruritus” (Astion Development A/S, priority 2005, published 2006).
“Also recorded” adds a separate entry of the source.

Columns and labels:
[1] = system: oxazolone induced ear inflammation in mice; assay: Oxazolone induced mouse ear oedema assay; type: in vivo
Experimental: This screening method is commonly employed for screening and evaluation of anti-inflammatory drugs, in particular with respect to the inflammation seen in contact dermatitis. Betamethasone-17 valerate was used as the positive control. […] Betamethason was administered topically in quantities of 20 μg/ear. Betamethason was applied in the commercial form Celeston valerate® 0.1%. All groups were immunised with 20 μl oxazolone, 1.6% in ethanol 96% (w/v) on the left and the right ear. The ear thickness of all mice on both the left and right side was measured with an electronic measuring gauge. All groups were challenged with 20 μl oxazolone (1.6% in ethanol 96% (w/v)) on the left ear and the right ear. Vehicle (acetone) or test article solutions were administered 20 minutes before and 20 minutes after oxazolone challenge. 24 hours after oxazolone challenge the ear thickness of all mice was measured with an electronic measuring gauge. Mean thickness of the ears and standard deviations were calculated. Ear swelling was calculated as the difference between the ear thickness day 7 and day 8. […] Differences in ear swelling between the vehicle treated group and the other groups were tested for significance employing a non-parametric statistical method of analysis, the Mann-Whitney U test. The required level of significance was p<0.05. […] Both test articles were applied in a dose of 500 μg/ear and dissolved in 96% ethanol. Betamethason, as the positive control was administered topically in quantities of 20 μg/ear.

[2] = target: T1, Protein Tyrosine Kinase, ZA70 (ZAP-70) (Homo sapiens, UniProt P43403); assay: enzyme assay, Protein Tyrosine Kinase ZA70 (ZAP-70) (MDS Pharma Service No 155987); type: biochemical; conditions: in words, comparison
T1 construct: purchased MDS Pharma Services (printed once as 'MSD Pharma Services') 155987
T1 sequence (P43403 1-619): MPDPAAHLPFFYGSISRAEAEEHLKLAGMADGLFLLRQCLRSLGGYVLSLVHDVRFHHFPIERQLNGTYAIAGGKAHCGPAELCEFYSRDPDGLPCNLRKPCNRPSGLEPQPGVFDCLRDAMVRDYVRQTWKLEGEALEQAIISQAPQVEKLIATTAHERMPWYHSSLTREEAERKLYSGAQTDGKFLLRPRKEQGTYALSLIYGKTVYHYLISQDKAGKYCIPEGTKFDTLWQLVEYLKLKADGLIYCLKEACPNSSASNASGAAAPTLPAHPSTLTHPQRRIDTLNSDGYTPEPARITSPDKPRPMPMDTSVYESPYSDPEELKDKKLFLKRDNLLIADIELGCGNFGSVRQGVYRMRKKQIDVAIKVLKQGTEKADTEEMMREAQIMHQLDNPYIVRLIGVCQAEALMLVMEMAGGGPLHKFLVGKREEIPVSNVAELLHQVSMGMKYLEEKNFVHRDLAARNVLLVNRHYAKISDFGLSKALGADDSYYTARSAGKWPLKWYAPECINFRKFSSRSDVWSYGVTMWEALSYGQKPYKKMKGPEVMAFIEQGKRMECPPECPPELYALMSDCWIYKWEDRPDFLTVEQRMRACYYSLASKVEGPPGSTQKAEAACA
Experimental: (§1) The enzyme assays were conducted by MSD Pharma Services.

skin = conditions: reported in the literature; cited from earlier work
[3] = target: T2, Protein Tyrosine Kinase, SYK (Homo sapiens, UniProt P43405); assay: enzyme assay, Protein Tyrosine Kinase SYK (MDS Pharma Service No 155761); type: biochemical; conditions: in words, comparison
T2 construct: purchased MDS Pharma Services (printed once as 'MSD Pharma Services') 155761
Experimental: as §1

Phosphodiesterase PDE IV = assay: enzyme assay, Phosphodiesterase PDE IV (MDS Pharma Service No 154000); type: biochemical; conditions: in words, comparison
[4] = system: Albino guinea pigs of Dunkin-Hartley strain; conditions: guinea pig, in vivo
Experimental: Test for skin sensitization is carried out according to the Magnusson and Kligman method (J. Invest. Dermatol. 1969. 52, 268-276) and in accordance with O.E.C.D. Guideline No. 406 of Jul. 17th, 1992, and the test method B.6 of the 96/54 E.E.C Directive.
Albino guinea pigs of Dunkin-Hartley strain were exposed to the test item after an acclimatisation period of at least five days.
The Maximum Non Necrotizing Concentration (M.N.N.C.) was determined by injecting by intradermal route the following concentrations: 2.5%, 1.25%, 0.625%, 0.3125%, 0.1562% and 0.078% diluted in physiological saline solution.
Pre-Maximum Non Irritant Concentration (pre-M.N.I.C.) was determined by application of the test item under an occlusive dressing during 24 hours, at the following concentrations: 2.5%, 1.25%, 0.625%, 0.3125% diluted in physiological saline solution.
Maximum Non Irritant Concentration (M.N.I.C.) was determined by initially establishing an induction phase by intradermal injection with a physiological saline solution and by topical application of distilled water followed by a 18-day rest phase. In the challenge phase where the test item is under occlusive dressing for 24 hours, the test item was applied to the skin of the Albino guinea pigs at the following concentrations: 2.5%, 1.25%, 0.625%, 0.3125% diluted in physiological saline solution.

undamaged skin area = assay: Acute dermal irritation; type: in vivo
Experimental: The sample was applied at a dose of 0.5 mL, on an undamaged skin area of the right flank of each animal. The patch was secured in position with a strip of surgical adhesive tape.
On the left flank an untreated area served as the control.
The skin reactions were evaluated after 1 hour and then after 24, 48 and 72 hours following removal of the patch according to the following grading scale:
Erythema (0: No erythema, 1: Slight(barelyperceptible)erythema, 2: Definite erythema, 3: Moderate to severe erythema, 4: Severe erythema (purpie) with formation of eschars (deep lesions) preventing erythema from being grading).
Oedema (0: No oedema, 1: Very slight (barely perceptible) oedema, 2: Slight oedema (contour clearly defined), 3: Moderate oedema (thickness), 4: Severe oedema (thickness greater than 1 mm, surface larger than zone of application)

[5] = system: moderate to severe inflammation following treatment with cryotherapy; conditions: topically applied; cited from earlier work
[6] = system: experimental contact dermatitis; conditions: topically applied; cited from earlier work

CCCCC(=O)O[C@]1(C(=O)CO)[C@@H](C)C[C@H]2[C@@H]3CCC4=CC(=O)C=C[C@]4(C)[C@@]3(F)[C@@H](O)C[C@@]21C [Betamethasone 17-valerate]
% inhibition of ear swelling ([1]; 20 μg/ear topical (Celeston valerate 0.1%), 24 hours after challenge): 66%

CCCCOc1ccc(CC(=O)NO)cc1 [Bufexamac]
inhibitory effect on Protein Tyrosine Kinase ZAP-70 [2]: only exhibits inhibitory effect on the PDE-IV enzyme | cutaneous side effects (skin): cause contact allergy; also recorded: major contact allergens | inhibitory effect on Protein Tyrosine Kinase SYK [3]: only exhibits inhibitory effect on the PDE-IV enzyme | inhibitory effect on the PDE-IV enzyme (Phosphodiesterase PDE IV): inhibitory effect

O=C(O)Cc1ccccc1Nc1c(Cl)cccc1Cl [Diclofenac]
cutaneous side effects (skin): irritant-type contact dermatitis may develop

CC(C(=O)O)c1cccc(C(=O)c2ccccc2)c1 (stereo not shown) [Ketoprofen]
cutaneous side effects (skin): major contact allergens

O=C(O)CCc1nc(-c2ccccc2)c(-c2ccccc2)o1 [Monoethanolamine Oxaprozin]
sensitization, macroscopic cutaneous reactions in the challenge phase [4]: No macroscopic cutaneous reactions attributable to allergy | inhibition of ear swelling (conclusion in words) ([1]; 250-1000 μg/ear topical): dose dependent and highly significant inhibition

O=C(O)CCc1nc(-c2ccccc2)c(-c2ccccc2)o1 [Oxaprozin, 4,5-diphenyl-2-oxazole-propionic acid]
cutaneous reactions (erythema and oedema) (undamaged skin area; 2.5% by weight in water (monoethanolamine salt), 0.5 mL, 1, 24, 48 and 72 hours): no cutaneous reactions | erythema on the treated area (undamaged skin area; 5% by weight in water (monoethanolamine salt), 0.5 mL, reading time 1 hour): slight erythema | reversibility of the erythema (undamaged skin area; 5% by weight, between the 2nd and the 3rd day of the test): totally reversible | inhibition of the formation of ear oedema ([1]; Example 7, 500 μg/ear dissolved in 96% ethanol): statistically significant inhibition

CC(=O)Oc1ccccc1C(=O)O [aspirin]
cutaneous side effects (skin): may induce urticarial reactions

CCC(=O)O[C@]1(C(=O)CCl)[C@@H](C)C[C@H]2[C@@H]3CCC4=CC(=O)C=C[C@]4(C)[C@@]3(F)[C@@H](O)C[C@@]21C [clobetasol propionate]
relieving the erythema and oedema [5]: proved to have effect

COc1ccc2c(c1)c(CC(=O)O)c(C)n2C(=O)c1ccc(Cl)cc1 [indomethacin]
cutaneous side effects (skin): may induce urticarial reactions | relieving the erythema and oedema [5]: poor effect | response in an animal model of contact dermatitis [6]: has been shown to respond

CN1C(C(=O)Nc2ccccn2)=C(O)c2ccccc2S1(=O)=O [piroxicam]
cutaneous side effects (skin): phototoxic or photoallergic dermatitis
